Assays:
[1] = tested on: Schistosoma mansoni; assay: Antischistosomal activity against Schistosoma mansoni Liberian infected in NMRI mouse assessed as worm burden reduction at 200 mg/kg, po measured after 14 days relative to control; format: functional; parameters: scale not given: the % may be the effect or the level left; conditions: time 14 day
[2] = tested on: Schistosoma mansoni; assay: Antischistosomal activity against adult Schistosoma mansoni LE assessed as reduction in motor activity at 50 uM measured after 24 hrs by inverted microscopy relative to control; format: functional; parameters: scale not given: the % may be the effect or the level left
[3] = tested on: Schistosoma mansoni; assay: Antischistosomal activity against Schistosoma mansoni infected in NMRI mouse assessed as worm burden reduction at 400 mg/kg, po administered […] for 4 consecutive days and measured after 14 days relative to control; format: functional; parameters: scale not given: the % may be the effect or the level left; conditions: time 14 day
[4] = tested on: Schistosoma mansoni; assay: microbe, parasite or virus in culture; conditions: Liberian, 72 h
Description: Antischistosomal activity against Schistosoma mansoni Liberian NTS incubated for 72 hrs by microscopic method

[5] = tested on: Schistosoma mansoni; assay: Antischistosomal activity against Schistosoma mansoni Puerto-Rican incubated for 72 hrs by inverted microscopic method; format: functional, organism-based
[6] = Cytotoxicity against Biomphalaria alexandrina incubated for 24 hrs relative to control; parameters: concentration or dose not given beside the values
[7] = tested on: Schistosoma mansoni; assay: Antischistosomal activity against Schistosoma mansoni Puerto-Rican assessed as worm mortality incubated for 5 days by stereomicroscopic method; format: functional, organism-based; conditions: 120 h; for IC90: time 5 day
[8] = Cytotoxicity against Biomphalaria alexandrina incubated for 24 hrs
[9] = tested on: Schistosoma mansoni; assay: Antischistosomal activity against Schistosoma mansoni Egyptian assessed as worm mortality incubated for 5 days by stereomicroscopic method; format: functional, organism-based; conditions: 120 h; for IC90: time 5 day
[10] = tested on: Schistosoma mansoni; assay: Antischistosomal activity against Schistosoma mansoni assessed as worm mortality at 5 ug/ml incubated for 5 days by stereomicroscopic method relative to control; format: functional; conditions: 120 h, time 5 day
[11] = tested on: Schistosoma mansoni; assay: Antischistosomal activity against Schistosoma mansoni infected in NMRI mouse assessed as worm burden reduction at 200 mg/kg, po administered as single dose and measured after 17 to 21 days relative to control; format: functional, organism-based; parameters: scale not given: the % may be the effect or the level left; conditions: time 17-21 day
[12] = tested on: Schistosoma haematobium; assay: Antischistosomal activity against Schistosoma haematobium at 10 uM measured after 72 hrs relative to control; format: functional
[13] = tested on: Schistosoma mansoni; assay: microbe, parasite or virus in culture; conditions: 72 h
Description: Antischistosomal activity against Schistosoma mansoni incubated for 72 hrs by inverted microscopic method

[14] = tested on: Schistosoma mansoni; assay: Antischistosomal activity against Schistosoma mansoni Puerto Rican schistosomula assessed as effect on worm motility measured after 72 hrs; format: functional, organism-based
[15] = tested on: Schistosoma mansoni; assay: Antischistosomal activity against Schistosoma mansoni Puerto Rican schistosomula assessed as effect on worm phenotype measured after 72 hrs; format: functional, organism-based

O[C@@H](c1cc(-c2ccc(C(F)(F)F)cc2)nc(C(F)(F)F)c1)[C@@H]1CCCCN1
Activity [1]: >82%

O[C@H](c1cc(-c2ccc(C(F)(F)F)cc2)nc(C(F)(F)F)c1)[C@H]1CCCCN1
Activity [1]: >82%

O=C1OC[C@@H](Cc2ccc3c(c2)OCO3)[C@@H]1Cc1ccc2c(c1)OCO2
Activity [2]: >75%

Clc1cc(Br)ccc1-c1ccc(CNCC2CCNCC2)o1
Activity [3]: 18.7%
IC50 [4]: 3.4 µM
IC50 [5]: 6.3 µM

CN(C)CCNc1c2c3ccccc3nc-2n(C)c2ccc(Cl)cc12
mortality [6]: 100%
IC50 [7]: 5.95 µM
IC90 [7]: 13 µM
LC50 [8]: 1.47 µM
LC90 [8]: 2.12 µM
IC50 [9]: 3.68 µM
IC90 [9]: 7.65 µM
mortality at 5 µg/mL [10]: 100%

CS(=O)(=O)c1ccc(C(=O)N(CC2CCCO2)c2nc3ccccc3s2)cc1[N+](=O)[O-] (configuration not stated)
Activity [11]: 55.2%
IC50 [4]: 0.4 µM
Activity [12]: 90.8%
IC50 [13]: 3.7 µM

Brc1ccc(Nc2nc3ccccc3nc2Nc2ccc(Br)cc2)cc1
Activity [3]: 40.8%
IC50 [5]: 0.8 µM

O=C(Nc1ccc(N2CCNCC2)cc1)c1ccn2ncc(-c3cccc(Cl)c3)c2n1
Activity [11]: 70.7%
IC50 [4]: 0.6 µM
Activity [12]: 100%
IC50 [13]: 2 µM

CN1CCN(c2c3cc(Cl)ccc3nc3[nH]c4ccccc4c23)CC1
mortality [6]: 100%
IC50 [7]: 6.27 µM
IC90 [7]: 17.9 µM
LC50 [8]: 0.63 µM
LC90 [8]: 0.91 µM
IC50 [9]: 5.41 µM
IC90 [9]: 13.7 µM
mortality at 5 µg/mL [10]: 100%

O=C(Nc1ccc(Cl)c(Cl)c1)Nc1ccc(Cl)c(Cl)c1
Activity [3]: 52.5%
IC50 [4]: 4.7 µM

CC1(C)CCC[C@]2(C)C(CC[C@@](C)(O)/C=C/c3ccc(Cl)cc3)[C@](C)(O)CC[C@@H]12 (some centres not stated)
IC50 [14]: < 10 µM
IC50 [15]: < 10 µM

O[C@@H]1OC[C@@H](Cc2ccc3c(c2)OCO3)[C@@H]1Cc1ccc2c(c1)OCO2
Activity [2]: >75%

Source: ChEMBL document CHEMBL4811216, “Chemotherapy for human schistosomiasis: how far have we come? What's new? Where do we go from here?” (RSC Med Chem, 2020)
